Entries after “also recorded” stand apart in the source; their conditions may differ.
System: ESC-induced Oct4-GFP re-activation in NSCs
Test: CLEAR analysis of ESC fusion-induced reprogramming (PEG-induced fusion of Z-Red ESCs and CIPOE NSCs, flow cytometry)
Excerpt: CLEAR strategy uses engineered ESCs and NSCs for monitoring fusion-induced DsRed expression and reprogramming-induced GFP expression (FIG. 1A). Z-Red ESCs were derived from a clonal ESC line containing one copy of a transgene (CAG-loxP-LacZ::neomycin-polyA-loxP-DsRed.T3) as a Cre recombination excision reporter.
Adult NSCs were isolated from Oct4-GFP (GOF 18-A PE-EGFP) transgenic mice and transduced by retroviruses to stably co-express Cre and the puromycin resistance gene through a bicistronic cassette (termed CIPOE NSCs hereafter). Somatic cells with Oct4-GFP transgene integration have been used previously to investigate reprogramming, in which the regulatory elements of Oct4 direct reliable GFP reactivation from somatic genomes in reprogrammed ESC-like hybrid cells (also see FIG. 3). Multiple CIPOE NSC lines from Oct4-GFP transgenic mice were established, characterized and used for subsequent cell fusion experiments.
To quantitatively analyze the reprogramming-induced Oct4-GFP re-activation, dual-color flow cytometry was used to display and measure the cell population that underwent PEG-induced cell fusion. Viable cells were identified by their typical FSC (Forward Scatter) and SSC (Side Scatter) properties. To ensure appropriate gating for […] and DsRed+ events and to compensate the spectrum crossover of GFP and DsRed signals, the system was first calibrated using multiple control cells, including Z-Red ESCs, CIPOE NSCs, mixed Z-Red ESCs and CIPOE NSCs without PEG. Z-Red ESCs transfected with a constitutive Cre expression plasmid, and CIPOE NSCs transfected with a Cre excision reporter plasmid (FIG. 4A).
ESC fusion-induced Oct4 re-activation from NSCs was quantitatively measured using two different approaches. In the first approach, the reprogramming frequency (Rf) is determined by the ratio of GFP DsRed+ cells to total DsRed+ cells. […] In the second approach, the reprogramming efficacy is determined by the distribution of GFP fluorescence intensities of individual cells from the DsRed+ population (FIG. 4C). This analysis provides a measurement of the efficiency of Oct4-GFP re-activation in NSCs after successful fusion.
The protocol was optimized for PEG-induced cell fusion between ESCs and NSCs to achieve maximum efficiency and minimal toxicity. Equal numbers of ESCs and NSCs were mixed thoroughly and spun down in PBS. The pellet was loosened by gentle tapping and 50% PEG (500 μl for 1×10^7 cells) was added to the cells continuously over one minute while swirling the mixture in 37° C. water bath Next, 2 ml of ESC medium was layered on top of PEG-cell mixture and one-minute incubation in 37° C., followed by low-speed centrifugation at 1,800 rpm for 5 minutes. After removing the supernatant, the pellet was incubated with ESC medium for one minute, washed, resuspended and plated onto gelatin-coated dishes and grown in Dubelcco's Modified Eagle's Medium, 15% fetal bovine serum supplemented with mouse leukemia inhibitory factor (ESGRO), 0.1 mM nonessential amino acids, 0.1 mM β-mercaptoethanol, and 50 U/ml penicillin/50 μg/ml streptomycin (ESC medium). […] The following pharmacological inhibitors were applied in ESC-fusion experiments only during the first 48 hours after fusion. DMOG (5-10 μM; BioMol), Anacardic acid (5-10 μM; Calbiochem), Trichostatin A (TSA, 100 nM-1 μM; Sigma) and azidothymidine (AZT, 1-5 μM; Sigma).

[1] = 10 μM, 48-hour treatment, analyzed at day 4, vs DMSO

Structure (SMILES): COC(=O)CNC(=O)C(=O)OC [DMOG, dimethyloxalylglycine]
- Effects (on reprogramming) (5 μM, applied only during the first 48 hours after fusion): strong reprogramming deficit
- reprogramming efficacy [1]: significant decreases
- reprogramming frequency [1]: significant decreases
- ESC-induced Oct4 re-activation in NSCs (inhibitor treatment after fusion): considerably reduced; also recorded: attenuates
